Read-outs that look alike come from different tables or passages of the source. Bounds are passed on as bounds.

Series [1] has as its target BRD4 (BD1+BD2) bromodomain (Homo sapiens (Human), UniProt O60885). Briefly: BRD4 binding inhibition (AlphaScreen, GST-BRD4 vs tetraacetylated histone H4 peptide). In outline: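 GST-BRD4 (BD1+BD2) and biotinylated tetraacetyl-histone H4 peptide, each at 100 nM in HEPES pH 7.4 buffer with BSA and DTT, were combined with compound. Glutathione acceptor and streptavidin donor beads were added, then incubated 30 min at room temperature in the dark. Read-out was AlphaScreen signal.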

Series [2] relates to acute myelogenous leukemia cells (MV-4-11 cells).
For series [3], the system named is thymus cancer cells (Ty-82 cells). Briefly: Cytotoxicity to thymus cancer cells (Ty-82 cells), WST-1. The conditions noted are these: Homo sapiens, TY82, 72 h, read-out: Ty-82 Cytotoxicity IC50.
Experimental: The following experiment was performed to evaluate the cytotoxicity of [1,2,4]triazolo[4,3-a]quinoxaline derivative according to the present invention to thymus cancer cells (Ty-82 cells).
First, thymus cancer cells (Ty-82 cells) were distributed in a 96 well plate at the density of 2.5×10^4 cells/well. 24 hours later, the plated cells were treated with the compounds of the present invention dissolved in DMSO at the different concentrations ranging from 0.01 μM to 10 μM. 72 hours later, the activities of the compounds were determined using WST-1 reagent.
Series [4] deals with acute myelogenous leukemia cells (MV-4-11 cells). In words: Cytotoxicity to acute myelogenous leukemia cells (MV-4-11 cells), CCK-8. The settings on record: Homo sapiens, MV4-11, 72 h, read-out: MV-4-11 Cytotoxicity IC50.
The mark [5] stands for this setting: GST-BRD4 (BD1+BD2) / biotinylated acetyl-histone H4 (Lys5,8,12,16) peptide, read-out: IC50, BRD4 binding inhibition.
Where [6] appears, read: GST-BRD4 (BD1+BD2) vs biotinylated acetyl-histone H4 peptide, AlphaScreen, read-out: BRD4 IC50.

Regarding `COc1ccc2nc(NCCCCNC(=O)CC(C)(C)C)c3nnc(C)n3c2c1` [Example 124, [4-(8-methoxy-1-methyl-[1,2,4]triazolo[4,3-a]quinoxaline-4-ylamino)-butyl]-3,3-dimethyl-butyramide], the concentration for half-maximal inhibition (IC50) was no more than 50 nM in series [1] (setting [5]), 29 nM in series [1] (setting [6]) and 700 nM in series [2].

As to `Cc1nnc2c(NCCCCNC(=O)[C@@H](O)C(C)C)nc3cc(N4CCSCC4)ccc3n12` [Example 525, N-[4-(7-thiomorphonyl-4-yl-1-methyl-[1,2,4]triazolo[4,3-a]quinoxaline-4-ylamino)-butyl]-2-(S)-hydroxy-3-methyl-butyramide], the IC50 is no more than 50 nM in series [1] (setting [5]), 11 nM in series [1] (setting [6]) and 200 nM in series [2].

In the case of `CCc1nnc2c(NCCCCNC(=O)CC(C)C)nc3cc(OC)ccc3n12` [Example 622, [4-(7-methoxy-1-ethyl-[1,2,4]triazolo[4,3-a]quinoxaline-4-ylamino)-butyl]-3-methyl-butyramide], the IC50 in series [1] (setting [5]) was no more than 50 nM; in series [1] (setting [6]), 20 nM; in series [2], 290 nM.

`Cc1nnc2c(NCCCCOC(=O)CC(C)(C)C)nc3ccccc3n12` [Example 633]: the concentration for half-maximal inhibition (IC50) in series [1] (setting [5]) was no more than 50 nM; in series [1] (setting [6]), 24 nM; in series [3], 900 nM; in series [4] it was 750 nM.

The values are drawn from US11028090B2 (Dong Wha Pharm. Co., Ltd., priority 2017, dated 2021).
